{"source": "patent US9428466B2", "about": "“Methods for reducing uric acid levels using barbiturate derivatives” (priority 2013, dated 2016)", "key": {"CHO-K1 cells": {"system": "CHO-K1 cells", "experiment": "In vitro mouse micronucleus assay (a test for cytotoxicity)", "type": "cell-based", "settings": "24 hr without S9 and 4 hr with S9, 62 μM-1000 μM", "procedure": "The in vitro mouse micronucleus assay was conducted in CHO-K1 cells seeded in 96-well plates and treated with test compounds for 24 hr (without S9) and for 4 hr (with S9). Cytochalasin B was added after 24 hr, and the cells were incubated for an additional 24 hr, after which the cells were fixed and scored for micronuclei. The assay was run using 6 concentrations in duplicate (62 μM-1000 μM), and data for the highest 5 concentrations that were not cytotoxic were reported. Cellular nuclei and micronuclei were stained, and an automated fluorescent microscopic detection system was used to score micronuclei in approximately 2,000 bi-nucleated cells per concentration."}, "URAT1 (SLC22A12)": {"target": "URAT1 (SLC22A12) (Homo sapiens (Human), UniProt Q96S37)", "sequence (Q96S37 whole entry)": "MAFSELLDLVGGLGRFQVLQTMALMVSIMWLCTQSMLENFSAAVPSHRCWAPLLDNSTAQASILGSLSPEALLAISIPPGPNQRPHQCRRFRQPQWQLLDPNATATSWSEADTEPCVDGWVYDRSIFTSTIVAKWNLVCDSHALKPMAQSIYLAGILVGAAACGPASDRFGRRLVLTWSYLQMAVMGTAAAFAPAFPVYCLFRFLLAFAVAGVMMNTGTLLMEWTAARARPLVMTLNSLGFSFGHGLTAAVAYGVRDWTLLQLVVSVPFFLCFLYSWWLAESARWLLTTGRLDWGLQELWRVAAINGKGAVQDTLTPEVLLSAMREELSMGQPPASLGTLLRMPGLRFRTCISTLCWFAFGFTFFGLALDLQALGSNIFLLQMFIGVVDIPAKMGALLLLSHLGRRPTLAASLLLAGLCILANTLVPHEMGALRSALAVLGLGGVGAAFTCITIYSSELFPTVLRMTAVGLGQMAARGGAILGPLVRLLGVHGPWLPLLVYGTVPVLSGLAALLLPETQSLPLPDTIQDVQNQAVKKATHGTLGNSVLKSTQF", "experiment": "URAT1 cellular uptake assay (3H-orotate transport, stably transfected URAT-1/CHO cells)", "type": "cell-based", "settings": "3H-orotate uptake, 7 concentrations 0.01 to 150 μM, read-out: URAT1 IC50 (μM ± SEM)", "procedure": "URAT1 (SLC22A12) activity was evaluated in a cellular uptake assay using a 96-well plate with stably transfected URAT-1/CHO cells. ^3H-orotate was used as the test transport agent, which was measured in a liquid scintillation counter, using benzbromarone as a positive control, and DMSO and non-transfected CHO cells as negative controls (Solvo Biotechnology, Boston, Mass.)."}, "xanthine oxidase [1]": {"target": "T1, xanthine oxidase (Homo sapiens (Human), UniProt P47989)", "T1 sequence (P47989 whole entry, species assumed)": "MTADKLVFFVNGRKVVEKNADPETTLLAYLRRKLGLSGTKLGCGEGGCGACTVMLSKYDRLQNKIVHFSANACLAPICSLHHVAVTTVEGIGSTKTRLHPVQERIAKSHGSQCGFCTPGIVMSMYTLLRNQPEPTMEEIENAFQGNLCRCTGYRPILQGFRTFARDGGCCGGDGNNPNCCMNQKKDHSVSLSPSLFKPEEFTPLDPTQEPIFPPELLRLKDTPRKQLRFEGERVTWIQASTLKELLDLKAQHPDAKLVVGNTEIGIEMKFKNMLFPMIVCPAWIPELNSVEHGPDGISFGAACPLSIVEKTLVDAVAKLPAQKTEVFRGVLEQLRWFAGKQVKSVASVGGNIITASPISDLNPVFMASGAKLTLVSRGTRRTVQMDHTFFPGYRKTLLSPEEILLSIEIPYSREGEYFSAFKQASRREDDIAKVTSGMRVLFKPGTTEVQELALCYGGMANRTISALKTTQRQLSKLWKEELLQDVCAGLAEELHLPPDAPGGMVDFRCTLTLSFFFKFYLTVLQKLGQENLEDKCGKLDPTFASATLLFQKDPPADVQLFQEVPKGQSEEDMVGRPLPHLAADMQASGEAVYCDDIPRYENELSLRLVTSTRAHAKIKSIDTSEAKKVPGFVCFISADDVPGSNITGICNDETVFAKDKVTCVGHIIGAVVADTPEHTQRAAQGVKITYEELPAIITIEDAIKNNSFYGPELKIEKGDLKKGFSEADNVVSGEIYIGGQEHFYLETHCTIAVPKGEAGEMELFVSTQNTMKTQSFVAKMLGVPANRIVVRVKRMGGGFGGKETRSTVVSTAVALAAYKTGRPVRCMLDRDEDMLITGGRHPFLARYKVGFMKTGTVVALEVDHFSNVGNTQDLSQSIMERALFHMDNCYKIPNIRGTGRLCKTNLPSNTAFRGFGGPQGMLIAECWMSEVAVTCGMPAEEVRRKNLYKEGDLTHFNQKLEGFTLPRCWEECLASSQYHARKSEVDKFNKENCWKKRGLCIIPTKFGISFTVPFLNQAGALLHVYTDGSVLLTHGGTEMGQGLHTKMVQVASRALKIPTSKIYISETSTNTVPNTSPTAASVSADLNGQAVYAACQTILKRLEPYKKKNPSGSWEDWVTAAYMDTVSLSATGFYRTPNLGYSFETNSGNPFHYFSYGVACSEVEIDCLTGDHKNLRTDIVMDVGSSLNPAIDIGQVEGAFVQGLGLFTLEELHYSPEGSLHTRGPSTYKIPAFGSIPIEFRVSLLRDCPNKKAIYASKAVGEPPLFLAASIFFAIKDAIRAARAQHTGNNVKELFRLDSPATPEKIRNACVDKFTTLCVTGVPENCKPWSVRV", "experiment": "Fluorescence-based xanthine oxidase activity assay", "type": "biochemical", "settings": "triplicate, 10 concentrations", "procedure": "Xanthine oxidase inhibition was determined using a standard fluorescence-based assay for xanthine oxidase activity (McHale A, Grimes H, Coughlan M P: Int J Biochem. 10:317-9, 1979) with minor variations. […] Experiments on test compounds were performed in triplicate in multi-well plates using 10 concentrations of each compound that ranged over a 3-fold dilution."}, "xanthine oxidase [2]": {"target": "T1, xanthine oxidase", "settings": "data taken from publications; cited from earlier work"}}, "note": "Read-outs that look alike come from different tables or passages of the source."}
{"smiles": "O=C(Nc1ccccc1)c1c(O)[nH]c(=O)[nH]c1=O", "note": "[2-oxo-desthiomerbarone, 1,2,3,4-tetrahydro-6-hydroxy-2,4-dioxo-N-phenyl-5-pyrimidinecarboxamide]", "values": [{"measurement": "Mouse Micronucleus", "setting": "CHO-K1 cells", "value": "Positive"}, {"measurement": "IC50", "setting": "URAT1 (SLC22A12)", "value": 1.2, "unit": "µM"}, {"measurement": "IC50", "setting": "xanthine oxidase [1]", "value": "> 300", "unit": "µM"}]}
{"smiles": "O=C(Nc1ccc(O)cc1)c1c(O)[nH]c(=O)[nH]c1=O", "note": "[4′-hydroxy-2-oxo-desthiomerbarone, 1,2,3,4-tetrahydro-6-hydroxy-2,4-dioxo-N-(4′-hydroxyphenyl)-5-pyrimidinecarboxamide]", "values": [{"measurement": "Mouse Micronucleus", "setting": "CHO-K1 cells", "value": "Negative"}, {"measurement": "IC50", "setting": "URAT1 (SLC22A12)", "value": "2.6 ± 0.6", "unit": "µM"}, {"measurement": "IC50", "setting": "xanthine oxidase [1]", "value": 1.06, "unit": "µM"}]}
{"smiles": "O=C(Nc1ccc(O)cc1)c1c(O)[nH]c(=S)[nH]c1=O", "note": "[4′-hydroxymerbarone, 1,2,3,4-tetrahydro-6-hydroxy-2-thioxo-4-oxo-N-(4′-hydroxyphenyl)-5-pyrimidinecarboxamide]", "values": [{"measurement": "Mouse Micronucleus", "setting": "CHO-K1 cells", "value": "Negative"}, {"measurement": "IC50", "setting": "URAT1 (SLC22A12)", "value": "9.4 ± 0.6", "unit": "µM"}, {"measurement": "IC50", "setting": "xanthine oxidase [1]", "value": 0.68, "unit": "µM"}]}
{"smiles": "O=C(O)CSc1nnc(Br)n1-c1ccc(C2CC2)c2ccccc12", "note": "[Lesinurad, lesinurad]", "values": [{"measurement": "IC50", "setting": "xanthine oxidase [2]", "value": "> 300", "unit": "µM"}]}
{"smiles": "O=C1NC(=S)NC(=O)C1C(=O)Nc1ccccc1", "note": "[Merbarone, 5-(N-phenylcarboxamido)-2-thio-barbituric acid, reference compound]", "values": [{"measurement": "Mouse Micronucleus", "setting": "CHO-K1 cells", "value": "Positive"}, {"measurement": "IC50", "setting": "URAT1 (SLC22A12)", "value": "5.4 ± 1", "unit": "µM"}, {"measurement": "IC50", "setting": "xanthine oxidase [1]", "value": 274, "unit": "µM"}]}
